Assay: xn = mol fraction of the nth substance listed
Conditions: Buoyancy - hydrostatic balance with magnetic suspension - one sinker, x2 = 0.95

C [methane] + O=C=O
Conditions	mass density [kg/m3]
300.07 K, 7972.2 kPa, Fluid (supercritical or subcritical phases)	556.595
300.14 K, 8371 kPa, Fluid (supercritical or subcritical phases)	616.06
300.14 K, 8570.3 kPa, Fluid (supercritical or subcritical phases)	633.917
300.15 K, 8770.2 kPa, Fluid (supercritical or subcritical phases)	648.153
300.15 K, 8969.4 kPa, Fluid (supercritical or subcritical phases)	660.072
300.15 K, 9169.7 kPa, Fluid (supercritical or subcritical phases)	670.371
300.15 K, 9370.4 kPa, Fluid (supercritical or subcritical phases)	679.432
300.15 K, 9569.6 kPa, Fluid (supercritical or subcritical phases)	687.435
300.15 K, 9968.4 kPa, Fluid (supercritical or subcritical phases)	701.498
300.16 K, 9768.4 kPa, Fluid (supercritical or subcritical phases)	694.681
300.17 K, 8169.8 kPa, Fluid (supercritical or subcritical phases)	590.047
301.07 K, 7972.4 kPa, Fluid (supercritical or subcritical phases)	491.013
301.08 K, 7573.6 kPa, Liquid	317.651
301.11 K, 7972.7 kPa, Liquid	489.743
301.11 K, 8970.7 kPa, Liquid	641.991
301.13 K, 6976 kPa, Gas	227.803
301.13 K, 7872.3 kPa, Liquid	446.609
301.14 K, 4003.5 kPa, Gas	86.6567
301.14 K, 5978.2 kPa, Gas	160.13
301.14 K, 7972.1 kPa, Liquid	486.831
301.14 K, 8170.1 kPa, Liquid	548.746
301.14 K, 8371.5 kPa, Fluid (supercritical or subcritical phases)	585.039
301.14 K, 8570.7 kPa, Fluid (supercritical or subcritical phases)	609.188
301.14 K, 9969.4 kPa, Liquid	689.045
301.14 K, 10967 kPa, Liquid	718.917
301.14 K, 11966 kPa, Liquid	741.154
301.15 K, 1990.5 kPa, Gas	37.5288
301.15 K, 2980.5 kPa, Gas	59.7905
301.15 K, 4979.8 kPa, Gas	117.931
301.15 K, 7772.9 kPa, Liquid	394.053
301.15 K, 8071.6 kPa, Liquid	522.073
301.15 K, 8271.7 kPa, Liquid	569.213
301.15 K, 8770.5 kPa, Fluid (supercritical or subcritical phases)	627.154
301.15 K, 8970.7 kPa, Fluid (supercritical or subcritical phases)	641.721
301.15 K, 9370.6 kPa, Fluid (supercritical or subcritical phases)	664.364
301.15 K, 9568.5 kPa, Fluid (supercritical or subcritical phases)	673.475
301.15 K, 9768.6 kPa, Fluid (supercritical or subcritical phases)	681.815
301.15 K, 9968.2 kPa, Fluid (supercritical or subcritical phases)	689.247
301.16 K, 7673.5 kPa, Liquid	347.909
301.16 K, 9169.7 kPa, Fluid (supercritical or subcritical phases)	653.715
301.17 K, 8170.5 kPa, Fluid (supercritical or subcritical phases)	547.088
302.07 K, 7971.5 kPa, Fluid (supercritical or subcritical phases)	416.856
302.09 K, 7574.3 kPa, Liquid	293.998
302.14 K, 7873.7 kPa, Liquid	376.389
302.14 K, 8073.1 kPa, Liquid	455.2
302.14 K, 8171.5 kPa, Liquid	491.43
302.14 K, 8273.3 kPa, Liquid	521.984
302.15 K, 7774.4 kPa, Liquid	340.924
302.15 K, 7973.5 kPa, Liquid	414.824
302.15 K, 8570 kPa, Fluid (supercritical or subcritical phases)	578.598
302.15 K, 8769.9 kPa, Fluid (supercritical or subcritical phases)	602.454
302.15 K, 8969.1 kPa, Fluid (supercritical or subcritical phases)	620.555
302.15 K, 9168.8 kPa, Fluid (supercritical or subcritical phases)	635.22
302.15 K, 9369 kPa, Fluid (supercritical or subcritical phases)	647.538
302.16 K, 7674.4 kPa, Liquid	312.96
302.16 K, 8169.9 kPa, Fluid (supercritical or subcritical phases)	489.715
302.16 K, 8371.1 kPa, Fluid (supercritical or subcritical phases)	543.85
302.16 K, 9568.3 kPa, Fluid (supercritical or subcritical phases)	658.091
302.16 K, 9768.3 kPa, Fluid (supercritical or subcritical phases)	667.497
302.16 K, 9970.6 kPa, Fluid (supercritical or subcritical phases)	676.016
303.08 K, 7971 kPa, Fluid (supercritical or subcritical phases)	368.276
303.15 K, 8169 kPa, Fluid (supercritical or subcritical phases)	434.951
303.15 K, 8369.8 kPa, Fluid (supercritical or subcritical phases)	500.535
303.15 K, 8569.4 kPa, Fluid (supercritical or subcritical phases)	546.267
303.15 K, 8770.2 kPa, Fluid (supercritical or subcritical phases)	577.054
303.16 K, 9168.7 kPa, Fluid (supercritical or subcritical phases)	616.875
303.16 K, 9368.4 kPa, Fluid (supercritical or subcritical phases)	631.164
303.16 K, 9567.7 kPa, Fluid (supercritical or subcritical phases)	643.384
303.16 K, 9967.1 kPa, Fluid (supercritical or subcritical phases)	663.476
303.17 K, 8969.3 kPa, Fluid (supercritical or subcritical phases)	598.947
303.17 K, 9768 kPa, Fluid (supercritical or subcritical phases)	653.938
304.1 K, 7971.1 kPa, Fluid (supercritical or subcritical phases)	329.354
304.14 K, 8569.2 kPa, Fluid (supercritical or subcritical phases)	496.33
304.14 K, 8968.4 kPa, Fluid (supercritical or subcritical phases)	567.739
304.15 K, 8769.3 kPa, Fluid (supercritical or subcritical phases)	537.629
304.15 K, 9169.5 kPa, Fluid (supercritical or subcritical phases)	590.204
304.15 K, 9567.9 kPa, Fluid (supercritical or subcritical phases)	622.735
304.16 K, 8171.5 kPa, Fluid (supercritical or subcritical phases)	378.227
304.16 K, 9973.8 kPa, Fluid (supercritical or subcritical phases)	646.365
304.17 K, 8370 kPa, Fluid (supercritical or subcritical phases)	438.794
304.17 K, 9370.7 kPa, Fluid (supercritical or subcritical phases)	607.811
304.17 K, 9767.3 kPa, Fluid (supercritical or subcritical phases)	634.947
305.11 K, 7971.7 kPa, Fluid (supercritical or subcritical phases)	307.661
305.15 K, 8371 kPa, Fluid (supercritical or subcritical phases)	394.247
305.15 K, 8569.8 kPa, Fluid (supercritical or subcritical phases)	449.045
305.15 K, 8769.4 kPa, Fluid (supercritical or subcritical phases)	497.809
305.15 K, 8968.6 kPa, Fluid (supercritical or subcritical phases)	535.323
305.15 K, 9168.3 kPa, Fluid (supercritical or subcritical phases)	563.28
305.15 K, 9568.1 kPa, Fluid (supercritical or subcritical phases)	602.629
305.16 K, 8169.9 kPa, Fluid (supercritical or subcritical phases)	344.406
